Laboratory results as given in patent US20260224573A1, “CRYSTAL FORM OF COMPOUND, AND PREPARATION METHOD AND USE THEREOF” (FELICAMED BIOTECHNOLOGY CO., LTD., priority 2023, published 2026).
Where a name gives a salt, the structure may show the parent alone. Read-outs that look alike come from different tables or passages of the source.

Key:
[1] = TGA weight loss / thermal stability; assay type: physicochemical; details: for thermal stability: comparison of TGA/DSC patterns; for TGA weight loss: heated to 150° C.
Text: TGA and DSC patterns were collected on a TA Q5000 thermogravimetric analyzer and a TA Discovery 2500 differential scanning calorimeter, respectively.
TGA results were collected on a TA Discovery 5500 thermogravimetric analyzer, and DSC results were collected on a TA Discovery 2500 differential scanning calorimeter.

[2] = Text: DVS isotherms were collected on an SMS (Surface Measurement Systems) DVS Intrinsic.
Remark: listed apart in the source
[3] = Pharmacokinetics of hydrochloride crystal form A in Beagle dogs; assay type: in vivo; details: single i.g. 6 mg/kg
Procedure: In this experiment, three male Beagle dogs were randomly selected for administration. All the animals were fasted for at least 12 h before administration and were fed again 4 h after administration. […] The blood samples from the animals were collected through the jugular vein, with a blood sample volume of 0.5 mL/time. All collected whole blood samples were placed in centrifuge tubes containing EDTA-K2, and the centrifuge tubes were turned upside down to allow the anticoagulant and blood to be fully mixed. All the blood samples were placed on wet ice before centrifugation and centrifuged at 1500 g for 10 min to separate plasma. The plasma samples were transferred to sample tubes and stored at -40° C. to […] until analysis. The drug concentration in the plasma of each Beagle dog was detected by an LC-MS/MS method.

[4] = Assessment of dynamic solubility; assay type: physicochemical; details: for pH of filtrate: 37° C.
[5] = Assessment of 24-h solubility in pH buffers; assay type: physicochemical; details: room temperature; for FC: crystal transfer: Buffer (pH = 7.4); for solubility at 24 h: thermodynamic from solid, read-out: S: solubility, calculated as free form
[6] = remark: listed apart in the source
Procedure: A method for testing the density and the tapped density included: (1) a certain mass of to-be-assessed sample was placed into a 5 mL measuring cylinder, and the volume at this moment was recorded. The bulk density was calculated by dividing the mass of the sample by the volume at this moment. (2) The measuring cylinder was slightly tapped 200 times, the final volume was recorded, and the tapped density was calculated by dividing the mass of the sample by the final volume. (3) Three parallel tests were conducted. A method for testing the angle of repose included: (1) a funnel was fixed vertically to a bottom surface, and the material was slowly placed into the funnel. (2) A well-proportioned cone of the material was formed on the bottom surface. The height and bottom surface diameter of the cone were measured. (3) Three parallel tests were conducted.

[7] = listed as phosphate crystal form A
[8] = dog, plasma, po, male Beagle dogs, mean
[9] = listed as hydrochloride crystal form A

With CC[S@@](=N)(=O)C[C@H]1CC[C@H](N(C)c2ncnc3[nH]ccc23)CC1 [Phosphate crystal form A] the thermal stability [1, 7] was “slightly poor thermal stability”, the TGA weight loss ([1]; listed as Phosphate Crystal Form A) was 2.82% and the TGA weight loss [1, 7] was 2.82%.

With CC[S@@](=N)(=O)C[C@H]1CC[C@H](N(C)c2ncnc3[nH]ccc23)CC1 [Sulfate crystal form A] the thermal stability ([1]; listed as sulfate crystal form A) was “poor thermal stability” and the “TGA stepwise weight loss” value ([1]; heated to 100° C.) was 14.83%.

In the case of CC[S@@](=N)(=O)C[C@H]1CC[C@H](N(C)c2ncnc3[nH]ccc23)CC1 [Hydrochloride crystal form A], the hygroscopicity ([2]; 25° C./80% RH) is reported as “slight hygroscopicity”, the “Crystal transformation after DVS” value ([2]; XRPD before and after DVS) is reported as “No” and the “UPLC peak Area, RRT 1.62” value (25° C./60% RH/4 weeks) is reported as 0.05%. The “UPLC peak Area, RRT 2.10” value (25° C./60% RH/4 weeks) was 0.07%, the “UPLC peak Area, RRT 2.19” value (25° C./60% RH/4 weeks) was <0.05% and the “Crystal form Transform” value (25° C./60% RH/4 weeks, open) was “No”. For the same compound, the “UPLC peak Area, RRT 1.00” value (40° C./75% RH/4 weeks) was 99.88%, the “UPLC peak Area, RRT 1.62” value (40° C./75% RH/4 weeks) was 0.05% and the “UPLC peak Area, RRT 2.10” value (40° C./75% RH/4 weeks) was 0.07%. For the same compound, the “UPLC peak Area, RRT 2.19” value (40° C./75% RH/4 weeks) was <0.05%, the “Crystal form Transform” value (40° C./75% RH/4 weeks, open) was “No” and the Purity (40° C./75% RH/4 weeks, open) was 99.88 area %. The “UPLC peak Area, RRT 1.62” value (80° C./1 d) was 0.05%, the “UPLC peak Area, RRT 2.10” value (80° C./1 d) was 0.08% and the “UPLC peak Area, RRT 2.19” value (80° C./1 d) was <0.05%. For the same compound, the “Crystal form Transform” value (80° C./1 d, closed) was “No”, the Purity (80° C./1 d, closed) was 99.87 area % and the “UPLC peak Area, RRT 1.00” value (Starting) was 99.82%. The “UPLC peak Area, RRT 1.62” value (Starting) was 0.05%, the “UPLC peak Area, RRT 2.10” value (Starting) was 0.08% and the “UPLC peak Area, RRT 2.19” value (Starting) was 0.06%. The Starting purity (before storage, UPLC) was 99.82 area %, the AUC(0-inf) [3, 8] was 32100 ng·h/mL and the AUC(0-t) [3, 8] was 31700 ng·h/mL. For the same compound, the Cmax [3, 8] was 5290 ng/mL, the Tmax [3, 8] was 0.417 h and the half-life [3, 8] was 3.59 h. The MRT inf ([3]; dog, plasma, po, male Beagle dogs, mean, read-out: MRT0-inf) was 5.11 h, the MRT last ([3]; dog, plasma, po, male Beagle dogs, mean, read-out: MRT0-t) was 4.84 h and the clinical observation [3] was “no obvious abnormalities were found”. For the same compound, the thermal stability [1] was “high”, the TGA weight loss ([1]; listed as Hydrochloride Crystal Form A) was 0.53% and the TGA weight loss [1, 9] was 0.53%. For the same compound, the pH of filtrate ([4]; FaSSIF, 1 h) was 5.0, the pH of filtrate ([4]; FaSSIF, 4 h) was 5.1 and the pH of filtrate ([4]; FeSSIF, 2 h) was 4.9. For the same compound, the pH of filtrate ([4]; FeSSIF, 4 h) was 4.9, the pH of filtrate ([4]; H2O, 1 h) was 4.0 and the pH of filtrate ([4]; H2O, 2 h) was 4.0. The pH of filtrate ([4]; H2O, 4 h) was 4.0, the solubility ([4]; H2O, SGF, FaSSIF and FeSSIF, 37 °C, water, thermodynamic from solid, in H2O, fully soluble) was > 9000 µg/mL and the pH of filtrate ([4]; SGF, 1 h) was 2.9. The pH of filtrate ([4]; SGF, 4 h) was 3.0, the “FC: crystal transfer” value [5] was “Yes” and the “FC: crystal transfer” value [5, 9] was “transformed into the free crystal form A”. The solubility at 24 h ([5]; buffer pH 2.0, pH 2, aqueous buffer, Buffer (pH = 2.0)) was > 9200 µg/mL, the solubility at 24 h ([5]; buffer pH 4.5, pH 4.5, aqueous buffer, Buffer (pH = 4.5)) was > 9200 µg/mL and the flowability ([6]; conclusion from Carr index and angle of repose) was “high flowability”. It also gave a Bulk density ([6]; single tests 1 to 3) of 0.14 g/mL, an Average bulk density ([6]; three parallel tests) of 0.14 g/mL and an Average tapped density ([6]; three parallel tests, tapped 200 times) of 0.24 g/mL.
